≈ marks a conversion by molar mass, not a printed value.
Experiments:
Format in all cases: cell-based
[1] = test system: C albicans; assay: in vitro agar Petri dish dilution test, MIC against C albicans; details: C albicans (Ca)
Description: (§1) The compounds have antimicrobial utility. In conventional in vitro agar Petri dish dilution tests for determining antimicrobial activity, the compounds of the Examples had minimum inhibitory concentrations (MIC) against the indicated organisms in parts per million (ppm) as follows: […]

[2] = test system: C. pelliculosa; assay: in vitro agar Petri dish dilution test, MIC against C. pelliculosa; details: Hansenula anomala; C. pelliculosa (Cp)
Description: as §1

[3] = test system: Pseudomonas Sp. Strain 10; assay: in vitro agar Petri dish dilution test, MIC against Pseudomonas Sp. Strain 10; details: Pseudomonas Sp. Strain 10 (Ps 10)
Description: as §1

[4] = test system: A. niger; assay: in vitro agar Petri dish dilution test, MIC against A. niger; details: Aspergillus niger; A. niger (An)
Description: as §1

[5] = test system: A. aerogenes; assay: in vitro agar Petri dish dilution test, MIC against A. aerogenes; details: Klebsiella aerogenes; A. aerogenes (Aa)
Description: as §1

[6] = test system: B. subtilis; assay: in vitro agar Petri dish dilution test, MIC against B. subtilis; details: Bacillus subtilis; B. subtilis (head Be, footnote Bs)
Description: as §1

[7] = test system: P. pullulans; assay: in vitro agar Petri dish dilution test, MIC against P. pullulans; details: P. pullulans (Pp)
Description: as §1

[8] = test system: Ceratocystis IPS; assay: in vitro agar Petri dish dilution test, MIC against Ceratocystis IPS; details: Ceratocystis IPS (CI)
Description: as §1

[9] = test system: S. aureus; assay: in vitro agar Petri dish dilution test, MIC against S. aureus; details: Staphylococcus aureus; S. aureus (Sa)
Description: as §1

[10] = test system: Trichoderm Sp. Madison P42; assay: in vitro agar Petri dish dilution test, MIC against Trichoderm Sp. Madison P42; details: Trichoderm Sp. Madison P42 (Tr 42)
Description: as §1

[11] = test system: T. mentagrophytes; assay: in vitro agar Petri dish dilution test, MIC against T. mentagrophytes; details: Trichophyton mentagrophytes; T. mentagrophytes (Tm)
Description: as §1

[12] = test system: S. typhosa; assay: in vitro agar Petri dish dilution test, MIC against S. typhosa; details: S. typhosa (St)
Description: as §1

[13] = test system: E. coli; assay: in vitro agar Petri dish dilution test, MIC against E. coli; details: Escherichia coli; E. coli (Ec)
Description: as §1

Cc1ccc(S(=O)(=O)CC(Cl)C#N)s1 (stereo not drawn) [2(a)]
MIC [1]: 50 µg/mL (≈ 200 µM) | MIC [2]: 50 µg/mL (≈ 200 µM) | MIC [3]: 500 µg/mL (≈ 2000 µM) | MIC [4]: 50 µg/mL (≈ 200 µM) | MIC [5]: 50 µg/mL (≈ 200 µM) | MIC [6]: 10 µg/mL (≈ 40 µM) | MIC [7]: 50 µg/mL (≈ 200 µM) | MIC [8]: 50 µg/mL (≈ 200 µM) | MIC [9]: 50 µg/mL (≈ 200 µM) | MIC [10]: 50 µg/mL (≈ 200 µM) | MIC [11]: 50 µg/mL (≈ 200 µM)

CCc1ccc(S(=O)(=O)CC(Cl)C#N)s1 (stereo not drawn) [2(b)]
MIC [1]: 500 µg/mL (≈ 1900 µM) | MIC [2]: 100 µg/mL (≈ 379 µM) | MIC [3]: 500 µg/mL (≈ 1900 µM) | MIC [12]: 5 µg/mL (≈ 19 µM) | MIC [4]: 500 µg/mL (≈ 1900 µM) | MIC [5]: 100 µg/mL (≈ 379 µM) | MIC [13]: 50 µg/mL (≈ 190 µM) | MIC [6]: 5 µg/mL (≈ 19 µM) | MIC [7]: 500 µg/mL (≈ 1900 µM) | MIC [8]: 100 µg/mL (≈ 379 µM) | MIC [9]: 5 µg/mL (≈ 19 µM) | MIC [10]: 500 µg/mL (≈ 1900 µM) | MIC [11]: 50 µg/mL (≈ 190 µM)

CCCCc1ccc(S(=O)(=O)CC(Cl)C#N)s1 (stereo not drawn) [2(c)]
MIC [1]: 50 µg/mL (≈ 171 µM) | MIC [2]: 50 µg/mL (≈ 171 µM) | MIC [3]: 500 µg/mL (≈ 1710 µM) | MIC [4]: 500 µg/mL (≈ 1710 µM) | MIC [5]: 500 µg/mL (≈ 1710 µM) | MIC [13]: 500 µg/mL (≈ 1710 µM) | MIC [6]: 5 µg/mL (≈ 17.1 µM) | MIC [7]: 50 µg/mL (≈ 171 µM) | MIC [8]: 50 µg/mL (≈ 171 µM) | MIC [9]: 5 µg/mL (≈ 17.1 µM) | MIC [10]: 500 µg/mL (≈ 1710 µM) | MIC [11]: 50 µg/mL (≈ 171 µM)

N#CC(Cl)CS(=O)(=O)c1cccs1 (stereo not drawn) [Example 1, 3-(2-Thiophenesulfonyl)-2-chloropropane nitrile]
MIC [1]: 10 µg/mL (≈ 42.4 µM) | MIC [2]: 10 µg/mL (≈ 42.4 µM) | MIC [3]: 100 µg/mL (≈ 424 µM) | MIC [4]: 100 µg/mL (≈ 424 µM) | MIC [5]: 100 µg/mL (≈ 424 µM) | MIC [13]: 100 µg/mL (≈ 424 µM) | MIC [6]: 100 µg/mL (≈ 424 µM) | MIC [7]: 10 µg/mL (≈ 42.4 µM) | MIC [8]: 100 µg/mL (≈ 424 µM) | MIC [9]: 100 µg/mL (≈ 424 µM) | MIC [10]: 100 µg/mL (≈ 424 µM) | MIC [11]: 10 µg/mL (≈ 42.4 µM)
